Data reported in PMC11521914 (Frontiers in Pharmacology, 2024).

Tests used:
[1] = molecular target: Protein tyrosine phosphatase 1B (PTP-1B); assay: Protein tyrosine phosphatase 1B (PTP-1B) enzyme activity inhibition assay; assay type: biochemical; conditions: rat liver supernatant, 10 mM pNPP
Protocol: One day before the isolation of the enzyme-containing subcellular fraction, lysis buffer was prepared (50 mM HEPES, 0.1 mM EGTA, 0.1 mM EDTA, 120 mM NaCl, 0.5% NP-40, pH 7.5) and enriched with one protease inhibitor cocktail tablet per 10 mL of buffer. The liver from an overnight-fasted healthy rat, previously anesthetized with isoflurane, was removed. The organ was then homogenized in lysis buffer as described by [Li et al. (2010)]. The homogenate was filtered and subsequently centrifuged at 14,000 g for 15 min at 4°C. Supernatants were collected and stored at −40°C until use.
Colorimetric assays were carried out to detect the dephosphorylation of pNPP, which is proportional to the activity of the PTP-1B enzyme. Three independent assays were performed in triplicate following the protocols proposed by [Guo et al. (2015)] and [Song et al. (2017)] with slight modifications. […] Finally, the absorbance was measured at 405 nm.
Finally, for in vitro experiments, absorbance values were transformed into activity percentages following the next formula: Enzyme activity %=AS−ASB/AC−ACB×100
Where A S is the absorbance of the inhibitor sample at a specific concentration, A SB is the blank of the inhibitor sample, A C is the highest absorbance (without inhibitor), and A CB is the blank of the highest absorbance. […]

[2] = system: STZ-NA-hyperglycemic rats; assay: Pyruvate tolerance tests (inhibition of hepatic glucose production); assay type: in vivo, Wistar rats; conditions: rats fasted 18 h, pyruvate 2 g/kg i.p.; metformin 500 mg/kg b.w. oral
Protocol: Treatment administration (vehicle and samples) was performed orally with the help of an esophageal cannula. Blood samples were obtained from the tail vein and glucose measurements were performed in duplicate using Accu-Chek® Active glucometers.
In summary hyperglycemia was induced as described by [Masiello et al. (1998)], rats fasted for 12 h were administered intraperitoneally with 150 mg/kg b. w. of NA and, 15 min later, 65 mg/kg b. w. of STZ was injected intravenously. After 2 weeks, animals with blood glucose values above 180 mg/dL were selected to perform the tests described below.
After basal glucose measurement, animals received their corresponding treatment. Fifteen minutes later, rats were injected intraperitoneally with a pyruvate solution (2 g/kg b. w.). In total, 30 rats were divided into five groups (n = 6 each group): 1. Normoglycemic Control + pyruvate (NP), receiving physiological solution; 2. Hyperglycemic Control + pyruvate (HP), which was administered with physiological solution; 3. […] (HMP); 4. Hyperglycemic Group + pyruvate + EtOH-WCg, administered with 30 mg/kg b. w. (HCgP); and 5. […] (HJaP). After intraperitoneal injection, glucose levels were measured every 30 min for 2 h ([Mata-Torres et al., 2020]).

Protein tyrosine phosphatase 1B (PTP-1B), sequence (P20417 whole entry): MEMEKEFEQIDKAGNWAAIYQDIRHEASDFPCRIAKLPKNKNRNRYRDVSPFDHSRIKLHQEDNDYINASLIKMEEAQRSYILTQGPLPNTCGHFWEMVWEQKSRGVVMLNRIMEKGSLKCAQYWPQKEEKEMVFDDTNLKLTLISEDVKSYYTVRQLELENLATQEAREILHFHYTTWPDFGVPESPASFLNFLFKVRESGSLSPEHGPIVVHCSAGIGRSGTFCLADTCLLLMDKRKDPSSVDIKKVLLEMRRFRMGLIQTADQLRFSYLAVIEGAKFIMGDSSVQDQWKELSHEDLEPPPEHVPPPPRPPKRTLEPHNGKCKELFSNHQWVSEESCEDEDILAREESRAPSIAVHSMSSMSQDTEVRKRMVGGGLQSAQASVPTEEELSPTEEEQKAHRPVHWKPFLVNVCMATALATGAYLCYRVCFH

For `[Na+].[Na+].[Na+].[O]=[V]([O-])([O-])[O-]` [Na3VO4], the “IC50 ± SEM” value [1] was 43.2 ± 1.5 µg/mL and the Inhibition % [1] was 97%.
With `CN(C)C(=N)N=C(N)N` [metformin] the “effect on the hyperglycemic peak 30 min after pyruvate injection” value [2] was “completely inhibited the hyperglycemic peak”.
